Starred links: 1 amine or outer side, 2 acyl side, 3 side chain; linkers in the order of their positions; H or OH if unused. Non-standard residues stand in square brackets, D forms with d. Residues, ends and D or L forms follow the SMILES beside them. X1 = O=C(Cc1cccc(/N=N/c2cccc(CN[*:1])c2)c1)[*:2]; X2 = O=C(Cc1cccc(/N=N\c2cccc(CN[*:1])c2)c1)[*:2]
Key:
MIN6 beta cells [1] = format: cell-based; conditions: for signaling pathways engaged (Ca2+ rises with pathway antagonists): MIN6 beta cells, 150 nM, >8 mM glucose, antagonists of Epac2, L-type Ca2+ channels, KATP, IP3R, PKA, n=8 repeats
Description: (§1) All procedures involving primary tissue were regulated by the Home Office […]
MIN6 cells (a kind gift from Dr Jun-ichi Miyazaki, Osaka University) […]
HEPES, 0.0005% β-mercaptoethanol 100 U/mL penicillin and 100 µg/mL […]
Multicellular Ca2+ imaging was performed using fluo2 and a Nipkow spinning disk confocal microscope, as detailed.[3] […]
through a 10/0.3 NA objective (EC Plan-Neofluar, Zeiss) using a solid-state laser (Cobalt), and emitted signals captured from λ = 500-550 nm using a Hammamatsu ImageEM EM-CCD camera. Photoswitching was performed using either a λ = 440 nm laser or the epifluorescent port of the microscope configured with a λ = 350 ± 20 nm band-pass filter. Throughout, HEPES-bicarbonate buffer was used, containing in mM: 120 NaCl, 4.8 KCl, 24 NaHCO3, 0.5 Na2HPO4, 5 […]
HEPES, 2.5 CaCl2 and 1.2 MgCl2. […]
High-throughput (HTS) Ca2+ assays were performed using the DiscoverX
HitHunter No Wash PLUS assay. Treatments were automatically delivered at 37 °C using a BMG Labtech NOVOstar platereader and fluorescence intensity read […]
over 30-45 s. […] For all […]
transilluminator to induce cis-isomerization, or kept in the dark to maintain the […]
trans-isomer. […]
(§2) Non-multifactorial comparisons were made using Student’s t-test. Multifactorial comparisons were made using either one- or two-way ANOVA, or the Kruskal-Wallis test, followed by pairwise comparisons using Bonferonni’s or Dunn’s tests.
(§3) Log-transformed concentration-response curves were fitted using non-linear regression and the Hill equation. All analyses were conducted using Graphpad Prism (Graphpad Software) and IgorPro, and results deemed significant at […]

MIN6 beta cells [2] = test: Apoptosis induced by glucolipotoxicity in MIN6 beta cells (cleaved caspase 3); format: cell-based; conditions: 500 nM, 24 h, 33 mM glucose + 0.5 mM palmitate, n=8 repeats
Description: MIN6 cells (a kind gift from Dr Jun-ichi Miyazaki, Osaka University) were cultured in DMEM supplemented with 15% FBS, 10 mM glutamine, 20 mM HEPES, 0.0005% β-mercaptoethanol 100 U/mL penicillin and 100 µg/mL […]
Apoptosis was assessed using a DeadEnd Fluorimetric
TUNEL System staining kit (Promega).[3] The apoptotic cell mass was calculated as a fraction area versus the total cell mass. To investigate the pro-survival […]
(§4) mixture (33 mM glucose + 0.5 mM palmitate) in the presence or absence of compound. Apoptosis was subsequently determined using specific fluorescent immunostaining and a rabbit polyclonal antibody against cleaved caspase 3 (Cell Signaling Technology # 9661; 1:400), before analysis as above. […]

[3] = tested on: pancreatic beta cells within intact islets; test: Multicellular Ca2+ imaging in intact islets of Langerhans; format: cell-based, mouse; conditions: for effect on cytosolic Ca2+ levels / multicellular Ca2+ spiking in islets / Ca2+ rises / beta-cell activity at non-permissive (low) glucose: 150 nM; for effect on cytosolic Ca2+ levels / multicellular Ca2+ spiking in islets: permissive (>8 mM) glucose, blue 440 nm (trans), UV 350 nm (cis); for Ca2+ rises / beta-cell activity at non-permissive (low) glucose: G3, 3 mM glucose, n=5 recordings; for effect of GLP-1R blockade on trans-LirAzo-stimulated Ca2+ oscillations: Exendin 9-39 150 nM, n=9 recordings
Description: (§5) All procedures involving primary tissue were regulated by the Home Office according to the Animals (Scientific Procedures) Act 1986 of the United Kingdom […]
(§6) Isolation of rodent islets
(§7) Islets were isolated from 8-12 week old female C57BL6 mice, as previously detailed,[2] and maintained in Roswell Park Memorial Institute (RPMI) medium supplemented with 10% foetal calf serum, 100 U/mL penicillin and 100 µg/mL […]
Multicellular Ca2+ imaging was performed using fluo2 and a Nipkow spinning disk confocal microscope, as detailed.[3] Briefly, pulsed λ = 491 nm light was delivered through a 10/0.3 NA objective (EC Plan-Neofluar, Zeiss) using a solid-state laser (Cobalt), and emitted signals captured from λ = 500-550 nm using a Hammamatsu ImageEM EM-CCD camera. Photoswitching was performed using either a λ = 440 nm laser or the epifluorescent port of the microscope configured with a λ = 350 ± 20 nm band-pass filter. Throughout, HEPES-bicarbonate buffer was used, containing in mM: 120 NaCl, 4.8 KCl, 24 NaHCO3, 0.5 Na2HPO4, 5 HEPES, 2.5 CaCl2 and 1.2 MgCl2. Compounds and D-glucose were added as […]

mouse islets = test: Glucose-stimulated insulin secretion from isolated islets; format: cell-based; conditions: 150 nM, 8 mM glucose, n=12 animals; for augmentation of glucose-stimulated insulin secretion: mouse islets, 30 min, dark (trans) or 350 nm light (cis)
Description: as §1, §6, §7
transilluminator to induce cis-isomerization, or kept in the dark to maintain the trans-isomer. In addition, for HTS Ca2+ assays, λ = 340 ± 10 nm or λ = […] was delivered between acquisitions using the platereader’s inbuilt […]
Batches of six to eight islets were incubated for 30 min in Krebs-HEPES-bicarbonate solution containing in mM: 130 NaCl, 3.6 KCl, 1.5 CaCl2, 0.5 MgSO4, 0.5 NaH2PO4, 2 NaHCO3, 10 HEPES and 0.1% (wt/vol) bovine serum albumin, pH 7.4.[2] Treatments were applied as indicated and photoswitching performed at λ = 340 ± 10 nm using a BMG Fluostar Optima platereader, as above. Insulin concentrations in the supernatant were measured using a Cisbio HTRF assay according to the low-range (sensitive) protocol.
as §2, §3

[4] = cis-trans photoisomerization by UV/Vis spectroscopy; format: physicochemical; conditions: UV 330 nm (trans→cis), blue 440 nm (cis→trans), listed as names the isomer
Text: Switching kinetics in response to blue (λ=440 nm; cis→trans) and UV (λ=330 nm; trans→cis) light were robust and fast, with no evidence of degradation or bleaching (Figure 2 b; see Figure S2 and Table S2 in the Supporting Information).

MIN6 beta cells [5] = test: cAMP responses in MIN6 beta cells (Cisbio HTRF cAMP assay); format: cell-based; conditions: permissive (>8 mM) glucose, n=7 repeats
Description: as §5, §6, §7
Chinese Hamster Ovary (CHO) cells stably expressing the GLP-1R were cultured in Dulbecco's Modified Eagle's Medium (DMEM) supplemented with 10% FBS, 1 x non-essential amino acids, 25 mM HEPES, 100 U/mL penicillin and 100 µg/mL streptomycin. […]
(§8) (live) and 2.5 µM of propidium iodide (dead), and […]/emission detected at λ = 491/525 nm and λ = 561/620 nm, respectively. The area of dead:live cells was calculated as a ratio. Apoptosis was assessed using a DeadEnd Fluorimetric TUNEL System staining kit (Promega).[3] The apoptotic cell mass was calculated as a fraction area versus the total cell mass. […]
as §4
HitHunter No Wash PLUS assay. […] Absorbance/emission were detected at λ = 488/525 nm. […]

islets = test: Cytotoxicity (dead:live and TUNEL) in islets; format: cell-based, mouse; conditions: 11 mM glucose-only; n=8-9 islets
Description: as §5, §6, §7
Cytotoxicity and apoptosis assays
as §8

Compound | Ca2+ fluxes versus control injection (high glucose alone) (MIN6 beta cells [1]; Figure S6) | signaling pathways engaged (Ca2+ rises with pathway antagonists) (MIN6 beta cells [1]) | protection from apoptosis induced by glucolipotoxic insult (MIN6 beta cells [2]) | effect on cytosolic Ca2+ levels / multicellular Ca2+ spiking in islets [3] | potentiation of glucose-stimulated insulin secretion (versus G8) (mouse islets) | augmentation of glucose-stimulated insulin secretion (mouse islets) | photoswitching kinetics τ1 [4] | photoswitching kinetics τ2 [4] | cAMP concentration response in MIN6 beta cells, cis versus trans (MIN6 beta cells [5]) | protection from apoptosis induced by glucolipotoxic insult (MIN6 beta cells [2]; listed as trans isomer of LirAzo) | Ca2+ rises / beta-cell activity at non-permissive (low) glucose [3] | Ca2+ rises / beta-cell activity at non-permissive (low) glucose ([3]; listed as trans-LirAzo) | islet cell apoptosis under normal conditions (TUNEL) (islets) | effect of GLP-1R blockade on trans-LirAzo-stimulated Ca2+ oscillations [3] | effect of GLP-1R blockade on trans-LirAzo-stimulated Ca2+ oscillations ([3]; listed as Exendin 9-39)
CC[C@H](C)[C@H](NC(=O)[C@H](Cc1ccccc1)NC(=O)[C@H](CCC(=O)O)NC(=O)[C@H](CCCCN)NC(=O)[C@H](C)NC(=O)[C@H](C)NC(=O)Cc1cccc(/N=N\c2cccc(CNC(=O)[C@H](CCC(=O)O)NC(=O)[C@H](CC(C)C)NC(=O)[C@H](Cc3ccc(O)cc3)NC(=O)[C@H](CO)NC(=O)[C@H](CO)NC(=O)[C@@H](NC(=O)[C@H](CC(=O)O)NC(=O)[C@H](CO)NC(=O)[C@@H](NC(=O)[C@H](Cc3ccccc3)NC(=O)[C@@H](NC(=O)CNC(=O)[C@H](CCC(=O)O)NC(=O)[C@H](C)NC(=O)[C@@H](N)Cc3c[nH]cn3)[C@@H](C)O)[C@@H](C)O)C(C)C)c2)c1)C(=O)N[C@@H](C)C(=O)N[C@@H](Cc1c[nH]c2ccccc12)C(=O)N[C@@H](CC(C)C)C(=O)N[C@H](C(=O)N[C@@H](CCCNC(=N)N)C(=O)NCC(=O)N[C@@H](CCCNC(=N)N)C(=O)NCC(=O)O)C(C)C [cis‐LirAzo] (H-HAEGTFTSDVSSYLE[X2]AAKEFIAWLVRGRG-OH) | only just above those observed following control injection | signaled via the cAMP binding partners Epac2 and PKA, as well as IP3 | Lira and trans‐LirAzo are more protective than cis‐LirAzo | reduced | potentiate | ca. 2.5 fold | 51.0 ± 2.4 s | 11.1 ± 4.0 min | significantly left‐shifted, with a higher maximal response |  |  |  |  |  | 
CC[C@H](C)[C@H](NC(=O)[C@H](Cc1ccccc1)NC(=O)[C@H](CCC(=O)O)NC(=O)[C@H](CCCCN)NC(=O)[C@H](C)NC(=O)[C@H](C)NC(=O)Cc1cccc(/N=N/c2cccc(CNC(=O)[C@H](CCC(=O)O)NC(=O)[C@H](CC(C)C)NC(=O)[C@H](Cc3ccc(O)cc3)NC(=O)[C@H](CO)NC(=O)[C@H](CO)NC(=O)[C@@H](NC(=O)[C@H](CC(=O)O)NC(=O)[C@H](CO)NC(=O)[C@@H](NC(=O)[C@H](Cc3ccccc3)NC(=O)[C@@H](NC(=O)CNC(=O)[C@H](CCC(=O)O)NC(=O)[C@H](C)NC(=O)[C@@H](N)Cc3c[nH]cn3)[C@@H](C)O)[C@@H](C)O)C(C)C)c2)c1)C(=O)N[C@@H](C)C(=O)N[C@@H](Cc1c[nH]c2ccccc12)C(=O)N[C@@H](CC(C)C)C(=O)N[C@H](C(=O)N[C@@H](CCCNC(=N)N)C(=O)NCC(=O)N[C@@H](CCCNC(=N)N)C(=O)NCC(=O)O)C(C)C [trans‐LirAzo] (H-HAEGTFTSDVSSYLE[X1]AAKEFIAWLVRGRG-OH) |  | signaled via the cAMP binding partners Epac2 and PKA, as well as IP3 | more protective than cis‐LirAzo | induced increases in the baseline amplitude and frequency of multicellular Ca^2+ spiking |  | ca. 1.4 fold | 32.3 ± 1.6 s | 7.5 ± 3.4 min |  | significant protection | unable to stimulate changes in beta‐cell activity | unable | do not induce |  | 
exendin 9–39 [reference compound] |  |  |  |  |  |  |  |  |  |  |  |  |  | abolished | abolishes
